Laboratory results reported in patent US11993561B2, “Expectorant compound, preparation method thereof and use thereof” (priority 2019, dated 2024).
Where a name gives a salt, the structure may show the parent alone.

Experiments:
Type in all cases: in vivo
mice = test: Expectorant test in mice using a phenol red method; conditions: for Expectorant effect (secretion of phenol red in tracheal segment), result in words: comparison between groups; for Tracheal phenol red excretion: n=10, phenol red i.p. 1 h after dosing, sacrifice 0.5 h later
Protocol: In Vivo Pharmacodynamic Test—Expectorant Test in Mice Using a Phenol Red Method
In this example, the in vivo efficacy of the compounds I1, I4, I13 of the present disclosure and known compounds was tested.
Mice in the positive control group were give medicinal ammonium chloride and ambroxol hydrochloride orally, mice in the normal control group were given normal saline of the same amount, and mice the other groups were given corresponding drugs by gavage. The mice were administered by gavage once in the morning and afternoon (excluding ammonium chloride) 2 days before the experiment. After 1 hour of intragastric administration on the morning of the experiment, the mice were intraperitoneally injected with 0.5 ml of phenol red, and the mice were sacrificed 0.5 hours later. The tissue surrounding the organs was peeled off, and a section of the trachea from the thyroid cartilage to the branch of the trachea was cut off and placed in a test tube containing 2 ml of normal saline. The tube was shaken for 30 minutes, the trachea was discarded, and 0.2 ml of sodium hydroxide (1 mol/L) was added to each sample solution. The OD value was measured using a UV-visible spectrophotometer at a wavelength of 546 nm, and the absorbance values were converted into the phenol red content according to the phenol red standard curve.
The data was processed by PEMS medical statistical software.

ICR mice = test: Acute toxicity test in mice administered intravenously; conditions: ICR mice, intravenous
Protocol: (§1) Acute toxicity test of the compound of the present disclosure to mice administered intravenously
(§2) To test the acute toxicity of compounds of the present disclosure and comparative compounds, the following experiments were performed.
(§3) Compounds of the present disclosure were dissolved in water and administered to 5 ICR mice (mice of 5-week old, male, weighing 20 g±2 g). Intravenous administration was performed to determine the median lethal dose (LD50, mg/kg). Ambroxol hydrochloride was used as a control.

[1] = as above; conditions: male, ICR, mouse, in vivo, iv
Protocol: as §1, §2, §3

[2] = gavage, dose 0.5 ml/kg (low dose)
[3] = gavage, dose 2.0 ml/kg (high dose)

**Q.** What does the source list for `Nc1c(Br)cc(Br)cc1CN[C@H]1CC[C@H](SCCCO)CC1` [I13, trans 3-[4-(2-amino-3,5-dibromo-benzylamino)-cyclohexylsulfanyl]-propan-1-ol]?
**A.** Dose-effect relationship of expectorant effect (mice; 0.5 vs 2.0 ml/kg): relatively obvious dose-effect relationship; Expectorant effect (secretion of phenol red in tracheal segment), result in words (mice): strongest effect; Tracheal phenol red excretion (mice; [2]): 1.452 ± 0.351 ΔΔ** mg/L; Tracheal phenol red excretion (mice; [3]): 1.826 ± 0.334 ΔΔ** mg/L; LD50 compared with ambroxol hydrochloride, in words (ICR mice): much higher; LD50 [1]: 507 mg/kg

**Q.** For `CN(Cc1cc(Br)cc(Br)c1N)[C@H]1CC[C@H](S)CC1.Cl` [I4, trans-4-[(2-amino-3,5-dibromo-benzyl)-methyl-amino]-cyclohexanethiol hydrochloride], which “Tracheal phenol red excretion” value (mice; [2]) is on record?
**A.** 1.083 ± 0.312 ΔΔ** mg/L

**Q.** What about the “Tracheal phenol red excretion” value (mice; [3]) of the same compound?
**A.** 1.273 ± 0.275 ΔΔ** mg/L

**Q.** And the “LD50 compared with ambroxol hydrochloride, in words” value (ICR mice)?
**A.** much higher

**Q.** What about the LD50 [1] of the same compound?
**A.** 523 mg/kg

**Q.** Which “Tracheal phenol red excretion” value (mice; oral, dose 1.0 ml/kg) does the source give for `Cl.N` [Ammonium chloride, ammonium chloride, reference compound] here?
**A.** 0.875 ± 0.208 ΔΔ** mg/L

**Q.** For `Cl.Nc1c(Br)cc(Br)cc1CN[C@H]1CC[C@H](S)CC1` [I1, trans-4-[(2-amino-3,5-dibromo-benzyl)amino]-cyclohexanethiol hydrochloride], which “Expectorant effect (secretion of phenol red in tracheal segment), result in words” value (mice) is on record?
**A.** best effect

**Q.** And the “Tracheal phenol red excretion” value (mice; [2])?
**A.** 1.225 ± 0.337 ΔΔ** mg/L

**Q.** What about the “Tracheal phenol red excretion” value (mice; [3]) of the same compound?
**A.** 1.610 ± 0.284 ΔΔ** mg/L

**Q.** And the “LD50 compared with ambroxol hydrochloride, in words” value (ICR mice)?
**A.** much higher

**Q.** What about the LD50 [1] of the same compound?
**A.** 453 mg/kg

**Q.** With `Nc1c(Br)cc(Br)cc1CN[C@H]1CC[C@H](O)CC1` [Ambroxol, ambroxol hydrochloride, reference compound] as the compound, how does the “Expectorant effect (secretion of phenol red in tracheal segment), result in words” value (mice) read?
**A.** best effect

**Q.** What about the “Tracheal phenol red excretion” value (mice; [3]) of the same compound?
**A.** 1.418 ± 0.352 ΔΔ** mg/L

**Q.** What about the LD50 [1] of the same compound?
**A.** 268 mg/kg

**Q.** Which “Tracheal phenol red excretion” value (mice; [3]) does the source give for `CC(=O)N[C@@H](CS)C(=O)O` [Acetylcysteine, acetylcysteine, reference compound] here?
**A.** 1.532 ± 0.247 ΔΔ** mg/L
